In assay [1] the test system is TSLP. Description: S. aureus-induced TSLP on NHEKs. Format: cell-based. To be noted: Homo sapiens; NHEK, live S. aureus ATCC 33591 1:1, 24 hours, ELISA; read-out: S. aureus-NHEK TSLP Protein IC50. The method, then: Normal human epidermal keratinocytes (NHEKs) from neonatal donors were obtained from Thermo-Fisher (Cat No. C-001-5C). Cells were cultured in 96-well plates for 24 hours with EpiLife media (Cat No. MEPI500CA) supplemented with keratinocytes growth supplement (Cat No. 50015). On Day 2, media was removed and replaced with supplement-depleted medium for 24 hours. On Day 3, media was removed and cells were pre-treated with test materials (≤[…]) for 2 hours and later co-treated with test materials and live S. aureus (ATCC® 33591) at 1:1 NHEK:bacteria ratio for 24 hours at 37° C. and 5% CO2. After incubation, cell media supernatants were harvested and used to measure TSLP levels using ELISA kit (R&D Systems® #DY1398). Results were represented as percent of inhibition relative to untreated and S. aureus-only treated cells. IC50 values were determined by non-linear regression analysis using the four-parameter logistic equation.

Assay [2] has as its system IL-6. Briefly: Nickel (Ni2+)-induced IL-6 on HDMECs. The assay is classed as cell-based. To be noted: Homo sapiens; HDMEC, 1 mM NiSO4, 6 hours, ELISA; read-out: Nickel-HDMECs IL-6 Protein IC50. The protocol:
Human Dermal Microvascular Endothelial cells (HDMECs) from human skin tissues were obtained from Sciencell, Inc. (Cat No. 2000). Cells were cultured in 96-well plates for 24 hours with ECM media (Cat No. 1001) supplemented with endothelial cell growth supplement (Cat No. 50015) and 5% v/v FBS. On Day 2, media was removed and replaced with supplement-depleted medium for 24 hours. On Day 3, media was removed and cells were pre-treated with test materials (≤10 μM) for 2 hours and later co-treated with test materials and 1 mM NiSO4 (Sigma-Aldrich, Cat No. 227676) for 6 hours at 37° C. and 5% CO2. After incubation, cell media supernatants were harvested and used to measure IL-6 levels using ELISA kit (BD Biosciences® #555220). Results were represented as percent of inhibition relative to untreated and NiSO4-only treated cells. IC50 values were determined by non-linear regression analysis using the four-parameter logistic equation.
(In general: An ELISA detects its analyte on a solid surface through an enzyme-linked reagent.)

The test system of assay [3] is IL-2. Briefly: PHA-induced IL-2 on PBMCs. Format: cell-based. The settings on record: Homo sapiens, PBMC, PHA-L 20 μg/mL, 24 hours, ELISA. The protocol:
Cryopreserved human Peripheral Blood Mononuclear cells (PBMCs) from healthy adult donors were obtained from Zen Bio, Inc (Cat No. SER-PBMC-F). Cells were cultured in 96-well plates with lymphocyte media (Cat No. LYMPH-1) and were pre-treated with test materials (≤100 μM) for 2 hours and later co-treated with test materials and PHA-L (Sigma Aldrich, Cat No. 11249738001) at 20 μg/mL and incubated for 24 hours at 37° C. and 5% CO2. After incubation, cell media supernatants were harvested and used to measure cytokine levels (IL-2, IFNγ) using ELISA kits (R&D Systems® #DY202, #DY285). Results were represented as percent of inhibition relative to untreated and PHA-only treated cells. IC50 values were determined by non-linear regression analysis using the four-parameter logistic equation.

The subject of assay [4] is P. acnes (ATCC 6919). Description: Minimal bactericidal concentration (MBC) against P. acnes. The assay is classed as cell-based, Propionibacterium acnes. To be noted: Cutibacterium acnes, ATCC6919; P. acnes 10^7 CFU/mL, in PBS, anaerobic conditions.
Assay [5] concerns DEFB4B (hBD2). Description: NHEK antimicrobial peptide gene expression, hBD2. The assay is classed as cell-based, human. To be noted: 10 μM, 24 hours, qPCR, normalized to GAPDH. The protocol:
Normal human epidermal keratinocytes (NHEKs) from neonatal donors were obtained from Thermo-Fisher (Cat No. C-001-5C). Cells were cultured in 6-well plates for 24 hours before treatments with EpiLife media (Cat No. MEPI500CA) supplemented with keratinocytes growth supplement (Cat No. 50015). On Day 2, media was removed and incubated with test materials (10 μM) for 24 hours at 37° C. and 5% CO2. On Day 3, total RNA was extracted from cells using the RNAqueous® kit (Ambion®; Cat No. 1912) and cDNA was obtained using the High Capacity RNA-to-cDNA kit (Applied Biosystems®; Cat No. 4387406). Quantitative PCR (qPCR) was performed using the TaqMan® Fast Advanced Master Mix (Applied Biosystems®; Cat No. 4444556) and specific TaqMan®-probes human gene primers DEFB4B (hBD2), DEFB103 (hBD3), HCAP18 and GAPDH to calculate the relative gene fold expression change per treatment. Gene expression analysis was performed using the comparative Ct method (also known as the 2-[delta][delta]Ct) approach by comparing the Ct values of the treated samples with the untreated samples and normalized to GAPDH gene expression as endogenous housekeeping gene. Results were represented as fold-expression/untreated cells.

Assay [6] relates to TNF (TNF-α). Description: P. acnes-induced TNF-α gene on human PBMCs (qPCR). The assay is classed as cell-based. The settings on record: PBMC, PBMCs + live P. acnes 1:1, test material 30 PM, 24 hours, read-out: TNFa-Gene % inhibition. The method, then: Cryopreserved human Peripheral Blood Mononuclear cells (PBMCs) from healthy adult donors were obtained from Zen Bio, Inc (Cat No. SER-PBMC-F). Cells were cultured in 12-well plates with lymphocyte media (Cat No. LYMPH-1) and incubated with test materials ([…]) and live P. acnes (ATCC® 6919TM) at 1:1 PBMC: P. acnes bacteria ratio for 24 hours at 37° C. and 5% CO2. After incubation, cell media supernatants were harvested and used to measure pro-inflammatory cytokine levels (IL-8, TNF-α, IL-1b, IL-17) using ELISA kits (BD Biosciences® #557966, #555212, #555244; R&D Systems® #DY317). Total RNA was extracted from cells using the RNAqueous® kit (Ambion®; Cat No. 1912) and cDNA was obtained using the High Capacity RNA-to-cDNA kit (Applied Biosystems®; Cat No. 4387406). Quantitative PCR (qPCR) was performed using the TaqMan® Fast Advanced Master Mix (Applied Biosystems®; Cat No. 4444556) and specific TaqMan®-probes human gene primers CXCL8 (IL-8), IL1B (IL-1b), TNF (TNF-α), IL17A (IL-17A) and GAPDH to calculate the relative gene fold expression change per treatment. Gene expression analysis was performed using the comparative Ct method (also known as the 2-[delta][delta]Ct) approach by comparing the Ct values of P. acnes-only treated cells with the untreated samples and normalized to GAPDH gene expression as endogenous housekeeping gene.
On the technique in general: Quantitative PCR measures a nucleic acid by following its amplification.

The values that follow come from patent US11802107B2, “Compounds and methods of use” (Signum Biosciences, Inc., priority 2017, dated 2023).

Each structure is given as a SMILES string. ≈ marks a conversion by molar mass, not a printed value.

Regarding `N#Cc1ccc(Oc2ccc3c(c2)COB3O)cc1` [AN2728, reference compound], the concentration for half-maximal inhibition (IC50) (commonly the concentration that inhibits the measured activity by half) in assay [1] worked out at 5000 nM; in assay [2], 100000 nM; in assay [3] it was 40 nM.

Turning to `C/C(=C\CSCC(NC(=O)NCC(=O)O)C(=O)O)CCCC(C)CCCC(C)CCCC(C)C` (centres unmarked) [A], the figures for the IC50 in assay [1] and in assay [2] were 9000 nM and 30 nM, respectively.

On to `C/C(=C\CSC[C@H](NC(=O)N(C)CC(=O)O)C(=O)O)CCCC(C)CCCC(C)CCCC(C)C` (stereo partly drawn) [Compound C, (2R)-2-{[(carboxymethyl)(methyl)carbamoyl]amino}-3-{[(2E)-3,7,11,15-tetramethylhexadec-2-en-1-yl]sulfanyl}propanoic acid], for which, in assay [4], the minimal bactericidal concentration (MBC) (commonly the lowest tested concentration that kills the bacteria rather than only halting them) is 22 µg/mL (≈ 42.7 µM). Moreover, the hBD2 gene expression in assay [5] is given as 0.7 Fold-expression/untreated cells. The inhibition (as a rule, the share of the control response that was lost under treatment) at 30 pM in assay [6] worked out at 0%. For the same compound, the results for the IC50 in assay [1], in assay [2] and in assay [3] were 3000 nM, 20 nM and 900 nM, respectively.

`C/C(=C\CSC[C@H](NC(=O)N1CCC[C@H]1C(=O)O)C(=O)O)CCCC(C)CCCC(C)CCCC(C)C` (some centres unmarked) [Compound E] displayed a minimum bactericidal concentration (MBC) in assay [4] of 7 µg/mL (≈ 12.9 µM). In addition, in assay [5], the hBD2 gene expression is reported as 1.1 Fold-expression/untreated cells. For the same compound, the inhibition at 30 pM in assay [6] worked out at 0%. The compound also gave an IC50 in assay [3] of 4100 nM.

For the compound `C/C(=C\CSCC(NC(=O)N(CC(=O)O)CC(=O)O)C(=O)O)CCCC(C)CCCC(C)CCCC(C)C` (centres unmarked) [Compound G], the MBC in assay [4] was found to be 1 µg/mL (≈ 1.79 µM). For the same compound, the hBD2 gene expression in assay [5] is given as 2.5 Fold-expression/untreated cells. Also, the inhibition at 30 pM in assay [6] worked out at 0%. Also, the IC50 in assay [3] worked out at 3300 nM.

Consider `C/C(=C\CSC[C@H](NC(=O)COCC(=O)O)C(=O)O)CCCC(C)CCCC(C)CCCC(C)C` (some centres unmarked) [Compound T], for which the inhibition at 30 pM in assay [6] amounted to 0%. The IC50 in assay [1] was found to be 10000 nM; in assay [2], 10 nM; in assay [3] it was 100 nM.
